# Reference: patent publication US6699676B1, “Uses of ouabain and ouabain-like molecules in apoptosis related pathologies” (Corporation du Centre de Recherche du Centre, Hospitalier …, priority 1999, dated 2004)
# Key:
# VSMC [1] = experiment: DNA synthesis, serum-induced [3H]-thymidine incorporation in VSMC; assay type: cell-based, rat
# Procedure: As with ouabain, VSMC apoptosis was blocked by inhibition of the Na^+,K^+ pump in K^+-depleted medium (Table 1). […] DNA synthesis in VSMC, measured as serum-induced [^3H]-thymidine incorporation, was also insensitive to 5 hours preincubation with ouabain and was decreased by ˜60% only after 48 hours of the Na^+, K^+ pump inhibition (data not presented).
# VSMC-MYC = experiment: Chromatin cleavage assay in VSMC-MYC; assay type: cell-based, rat; conditions: 1 mM ouabain, 1 hr preincubation, 6 hours
# Procedure: Cells were incubated in K^+-containing medium consisting of 91 mM NaCl, 5 mM KCl, 0.9 mM NaH2PO4, 44 mM NaHCO3, 1.8 mM CaCl2, 0.8 mM MgCl2, 33 mM HEPES and 5 mM D-glucose (pH 7.4) (lines 1 and 2) or in K^+-depleted medium (equimolar substitution of KCl by NaCl, line 3) with or without 10% calf serum (CS) and 1 mM ouabain as indicated. In experiments with VSMC-MYC and VSMC-E1A, cells were preincubated for 1 hr with ouabain or with K^+-depleted medium in the presence of CS and then subjected to treatment with serum-free media. After 24 hours (VSMC) or 6 hours (VSMC-MYC and VSMC-E1A), the content of chromatin fragments was measured as described in Experimental Procedures. […]
# Chromatin cleavage assay. […] After 15 min, the cell lysate was transferred to Ependorf tubes, sedimented (12,000 rpm, 10 mm), and 1 ml of supernatant was transferred for the measurement of radioactivity (A1t). The remaining radioactivity from pellets and wells was extracted with 0.5 ml of 1% SDS/4 mM EDTA mixture, combined and counted (A2). Chromatin cleavage was quantified as the content of chromatin fragments normalized by total content of [^3H]-labeled DNA in accordance with the equation [1.5×(A1t−A1o)/(A2+A1t−1.5A1o)]×100% where A1o is the value of A1t before induction of apoptosis. […]
# VSMC [2] = experiment: ATP content in VSMC; conditions: 8 hours incubation with ouabain, data not shown
smiles,measurement,setting,value
"C[C@@H]1O[C@@H](O[C@H]2C[C@@H](O)[C@]3(CO)[C@H]4[C@H](O)C[C@]5(C)[C@@H](C6=CC(=O)OC6)CC[C@]5(O)[C@@H]4CC[C@]3(O)C2)[C@H](O)[C@H](O)[C@H]1O [Ouabain, 1β,3β,5,11α,14,19-hexahydroxycard 20 [22]-enolide 3-[6-deoxy-α-L-mannopyrano-sidel]]","DNA synthesis, serum-induced [^3H]-thymidine incorporation",VSMC [1]; 5 hours preincubation with ouabain,insensitive
same,"decrease of DNA synthesis, serum-induced [^3H]-thymidine incorporation","VSMC [1]; after 48 hours of Na+,K+ pump inhibition with ouabain",~60%
same,Chromatin fragments (%),VSMC-MYC; 10% CS,1.4 ± 0.3%
same,Chromatin fragments (%),VSMC-MYC; CS-free,3.1 ± 0.4 %
same,ATP content,VSMC [2],did not observe any significant effect
